One assay addresses T1, HCV NS5B (Hepatitis C virus genotype 1b, UniProt Q9WMX2).
T1 construct: The protein was expressed with an 18 amino acid C-terminal truncation to enhance the solubility; made in house; host or cells: E. coli BL21(DE3)
The assay is described as follows: HCV NS5B RdRp enzyme assay (standard or modified). It is filed as biochemical. As to the method: HCV NS5B RdRp cloning, expression, and purification. The cDNA encoding the NS5B protein of HCV, genotype 1b, was cloned into the pET21a expression vector. The protein was expressed with an 18 amino acid C-terminal truncation to enhance the solubility. The E. coli competent cell line BL21(DE3) was used for expression of the protein. Cultures were grown at 37 °C for ~ 4 hours until the cultures reached an optical density of 2.0 at 600 nm. The cultures were cooled to 20 °C and induced with I mM IPTG. Fresh ampicillin was added to a final concentration of 50 µg/ml and the cells were grown overnight at 20 °C.
Cell pellets (3L) were lysed for purification to yield 15-24 mgs of purified NS5B. The lysis buffer consisted of 20 mM Tris-HCl, pH 7.4, 500 mM NaCl, 0.5% triton X-100, 1 mM DTT, 1mM EDTA, 20% glycerol, 0.5 mg/ml lysozyme, 10 mM MgCl2, 15 ug/ml deoxyribonuclease I, and Complete TM protease inhibitor tablets (Roche). After addition of the lysis buffer, frozen cell pellets were resuspended using a tissue homogenizer. To reduce the viscosity of the sample, aliquots of the lysate were sonicated on ice using a microtip attached to a Branson sonicator. The sonicated lysate was centrifuged at 100,000 x g for 1hr at 4 °C and filtered through a 0.2 µm filter unit (Corning).
The protein was purified using three sequential chromatography steps: Heparin sepharose CL-6B, polyU sepharose 4B, and Hitrap SP sepharose (Pharmacia). The chromatography buffers were identical to the lysis buffer but contained no lysozyme, deoxyribonuclease I, MgCl2 or protease inhibitor and the NaCl concentration of the buffer was adjusted according to the requirements for charging the protein onto the column. Each column was eluted with a NaCl gradient which varied in length from 5-50 column volumes depending on the column type. After the final chromatography step, the resulting purity of the enzyme is >90% based on SDS-PAGE analysis. The enzyme was aliquoted and stored at -80 °C.
Standard HCV NS5B RdRp enzyme assay. HCV RdRp genotype 1b assays were run in a final volume of 60 µl in 96 well plates (Costar 3912). The assay buffer is composed of 20 mM Hepes, pH 7.5, 2.5 mM KCI, 2.5 mM MgCl2, 1 mM DTT, 1.6 U RNAse inhibitor (Promega N2515), 0.1 mg/ml BSA (Promega R3961), and 2 % glycerol. All compounds were serially diluted (3-fold) in DMSO and diluted further in water such that the final concentration of DMSO in the assay was 2%. HCV RdRp genotype Ib enzyme was used at a final concentration of 28 nM. A polyA template was used at.6 nM, and a biotinylated oligo-dT12 primer was used at 180 nM final concentration. Template was obtained commercially (Amersham 27-4110). Biotinylated primer was prepared by Sigma Genosys. 3H-UTP was used at 0.6 µCi (0.29 µM total UTP). Reactions were initiated by the addition of enzyme, incubated at 30 °C for 60 min, and stopped by adding 25 µl of 50 mM EDTA containing SPA beads (4 µg/µl, Amersham RPNQ 0007). Plates were read on a Packard Top Count NXT after > 1hr incubation at room temperature.
Modified HCV NS5B RdRp enzyme assay. A modified enzyme assay was performed essentially as described for the standard enzyme assay except for the following: The biotinylated oligo dT12 primer was precaptured on streptavidin-coated SPA beads by mixing primer and beads in assay buffer and incubating at room temperature for one hour. Unbound primer was removed after centrifugation. The primer-bound beads were resuspended in 20 mM Hepes buffer, pH 7.5 and used in the assay at final concentrations of 20 nM primer and 0.67 µg/µl beads. Order of addition in the assay: enzyme (14 nM) was added to diluted compound followed by the addition of a mixture of template (0.2 nM), 3H-UTP (0.6 µCi, 0.29 µM), and primer-bound beads, to initiate the reaction; concentrations given are final. Reactions were allowed to proceed for 4 hours at 30° C.
IC50 values for compounds were determined using seven different [I]. […]

The next assay has as its system HCV replicon. The assay can be described thus: HCV replicon assay (FRET or luciferase readout). Type of assay: cell-based. The source says: FRET Assay Preparation. To perform the HCV FRET screening assay, 96-well cell culture plates were used. The FRET peptide (Anaspec, Inc.) (Taliani et al., Anal. Biochem. 1996, 240, 60-67) contains a fluorescence donor, EDANS, near one end of the peptide and an acceptor, DABCYL, near the other end. The fluorescence of the peptide is quenched by […] resonance energy transfer (RET) between the donor and the acceptor, but as the NS3 protease cleaves the peptide the products are released from RET quenching and the fluorescence of the donor becomes apparent. The assay reagent was made as follows: 5X cell Luciferase cell culture lysis reagent from Promega (#E153A) diluted to 1X with dH2O, NaCl added to 150 mM final, the FRET peptide diluted to 20 µM final from a 2 mM stock.
To prepare plates, HCV replicon cells, with or without a Renilla luciferase reporter gene, were trypsinized and placed into each well of a 96-well plate with titrated test compounds added in columns 3 through 12; columns 1 and 2 contained a control compound (HCV protease inhibitor), and the bottom row contained cells without compound. The plates were then placed in a CO2 incubator at 37 °C.
Assays. Subsequent to addition of the test compounds described above (FRET Assay Preparation), at various times the plate was removed and Alamar blue solution (Trek Diagnostics, #00-100) was added per well as a measure of cellular toxicity. After reading in a Cytoflour 4000 instrument (PE Biosystems), plates were rinsed with PBS and then used for FRET assay by the addition of 30 ul of the FRET peptide assay reagent described above (FRET Assay Preparation) per well. The plate was then placed into the Cytoflour 4000 instrument which had been set to 340 excite/490 emission, automatic mode for 20 cycles and the plate read in a kinetic mode. Typically, the signal to noise using an endpoint analysis after the reads was at least three-fold. Alternatively, after Alamar blue reading, plates were rinsed with PBS, 50 ul of DMEM (high glucose) without phenol red was added and plates were then used for luciferase assay using the Promega Dual-Glo Luciferase Assay System.
Compound analysis was determined by quantification of the relative HCV replicon inhibition and the relative cytotoxicity values. To calculate cytoxicity values, the average Alamar Blue fluorescence signals from the control wells were set as 100% non-toxic. The individual signals in each of the compound test wells were then divided by the average control signal and multiplied by 100% to determine […]. To calculate the HCV replicon inhibition values, an average background value was obtained from the two wells containing the highest amount of HCV protease inhibitor at the end of the assay period. These numbers were similar to those obtained from naïve Huh-7 cells.
The background numbers were then subtracted from the average signal obtained from the control wells and this number was used as 100% activity. The individual signals in each of the compound test wells were then divided by the averaged control values after background subtraction and multiplied by 100% to determine percent activity. EC50 values for a protease inhibitor titration were calculated as the concentration which caused a 50% reduction in FRET or luciferase activity. The two numbers generated for the compound plate, percent cytoxicity and percent activity were used to determine compounds of interest for further analysis.
(A replicon is a self-replicating genome or part of one, used to study replication in cells.)

[1] abbreviates: Hepatitis C virus, HCV replicon cells, FRET or luciferase activity, read-out: EC50.

Like-named read-outs stand apart in the source and are kept apart here.

T1 sequence (Q9WMX2 2420-2992): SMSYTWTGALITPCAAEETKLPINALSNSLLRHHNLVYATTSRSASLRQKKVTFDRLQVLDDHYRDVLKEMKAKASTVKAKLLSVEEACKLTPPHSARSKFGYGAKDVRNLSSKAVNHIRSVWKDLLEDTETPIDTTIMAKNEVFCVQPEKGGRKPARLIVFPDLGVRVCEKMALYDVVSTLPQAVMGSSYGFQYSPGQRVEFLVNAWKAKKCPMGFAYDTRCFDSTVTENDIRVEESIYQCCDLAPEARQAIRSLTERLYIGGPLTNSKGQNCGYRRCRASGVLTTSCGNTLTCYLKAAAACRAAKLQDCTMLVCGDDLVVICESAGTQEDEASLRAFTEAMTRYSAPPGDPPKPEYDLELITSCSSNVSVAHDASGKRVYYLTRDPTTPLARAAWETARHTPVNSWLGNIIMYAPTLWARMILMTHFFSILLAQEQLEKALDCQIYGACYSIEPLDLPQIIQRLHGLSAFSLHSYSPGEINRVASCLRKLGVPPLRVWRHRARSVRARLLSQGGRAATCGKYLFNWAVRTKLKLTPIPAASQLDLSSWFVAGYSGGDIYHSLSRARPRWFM

The molecule `COc1ccc2c(c1)C=C(c1c(C(=O)N3C4CCC3CN(C)C4)c(C)nn1C(C)C)Cn1c-2c(C2CCCCC2)c2ccc(C(=O)NS(=O)(=O)C(C)C)cc21` gave an IC50 on HCV NS5B of 1 to 500 nM. The EC50 with HCV replicon (Hepatitis C virus) lay in the range of 1 to 500 nM.
For the molecule `CCn1nc(C)c(C(=O)N2C3CCC2CN(C)C3)c1C1=Cc2cc(OC)ccc2-c2c(C3CCCCC3)c3ccc(C(=O)NS(=O)(=O)C(C)C)cc3n2C1`, on HCV NS5B, the concentration for half-maximal inhibition (IC50) fell in the range of 1 to 500 nM. This molecule also came in with a 50% effective concentration (EC50) with HCV replicon (Hepatitis C virus) of 1 to 500 nM.
Turning to `CCn1nc(C)c(C(=O)N2C[C@@H](C)N(C)[C@@H](C)C2)c1C1=Cc2cc(OC)ccc2-c2c(C3CCCCC3)c3ccc(C(=O)NS(=O)(=O)C(C)C)cc3n2C1`, in the assay on HCV replicon (setting [1]), the concentration for a half-maximal effect (EC50) is 1 to 500 nM.
As for `CCn1ncc(C(=O)N2CC3CCC(C2)O3)c1C1=Cc2cc(OC)ccc2-c2c(C3CCCCC3)c3ccc(C(=O)NS(=O)(=O)C(C)C)cc3n2C1`, the half-maximal effective concentration (EC50) in the assay with HCV replicon (Hepatitis C virus) fell in the range of 1 to 500 nM.
Molecule `CCn1ncc(C(=O)N2CC3CCC(C2)N3C)c1C1=Cc2cc(OC)ccc2-c2c(C3CCCCC3)c3ccc(C(=O)NS(=O)(=O)C(C)C)cc3n2C1` came in with a half-maximal inhibitory concentration (IC50) against HCV NS5B of 1 to 500 nM. The molecule also had a concentration for a half-maximal effect (EC50) in the assay with HCV replicon (Hepatitis C virus) of 1 to 500 nM.
In the assay on HCV replicon (Hepatitis C virus), `CCn1nc(C)c(C(=O)N2CC3CCC(C2)N3C)c1C1=Cc2cc(OC)ccc2-c2c(C3CCCCC3)c3ccc(C(=O)NS(=O)(=O)C(C)C)cc3n2C1` yielded an EC50 of 1 to 500 nM.
With `CCn1nc(C)c(C(=O)N2C3CCCC2COC3)c1C1=Cc2cc(OC)ccc2-c2c(C3CCCCC3)c3ccc(C(=O)NS(=O)(=O)C(C)C)cc3n2C1`, the IC50 against HCV NS5B was 1 to 500 nM. For the same molecule, in the assay with HCV replicon (Hepatitis C virus), the EC50 lay within 1 to 500 nM.
As for `CCn1nc(C)c(C(=O)N2CCO[C@H](COC)C2)c1C1=Cc2cc(OC)ccc2-c2c(C3CCCCC3)c3ccc(C(=O)NS(=O)(=O)C(C)C)cc3n2C1`, the EC50 with HCV replicon (setting [1]) is 1 to 500 nM.
On HCV NS5B, `COc1ccc2c(c1)C=C(c1c(C(=O)N3C4CCC3CN(C)C4)ncn1C(C)C)Cn1c-2c(C2CCCCC2)c2ccc(C(=O)NS(=O)(=O)C(C)C)cc21` displayed an IC50 of 1 to 500 nM. For the same molecule, the EC50 in the assay with HCV replicon (Hepatitis C virus) lay within 1 to 500 nM.
`COc1ccc2c(c1)C=C(c1c(C(=O)N3C4CCC3CN(C)C4)nnn1C(C)C)Cn1c-2c(C2CCCCC2)c2ccc(C(=O)NS(=O)(=O)N(C)C)cc21` displayed a concentration for half-maximal inhibition (IC50) at HCV NS5B of 1 to 500 nM. The molecule further yielded an EC50 with HCV replicon (Hepatitis C virus) of 1 to 500 nM.
On to `COc1ccc2c(c1)C=C(c1nn(C(C)C)c(C)c1C(=O)N1C[C@@H](C)O[C@@H](C)C1)Cn1c-2c(C2CCCCC2)c2ccc(C(=O)NS(=O)(=O)C(C)C)cc21` [drawing 151], for which, in the assay on HCV replicon (setting [1]), the concentration giving a half-maximal response (EC50) fell in the range of 1 to 500 nM.
`COc1ccc2c(c1)C=C(c1nn(C(C)C)c(C)c1C(=O)N1C[C@@H](C)O[C@@H](C)C1)Cn1c-2c(C2CCCCC2)c2ccc(C(=O)NS(=O)(=O)C(C)C)cc21` [drawing 156]: the concentration giving a half-maximal response (EC50) with HCV replicon (HCV replicon cells, FRET or luciferase activity, read-out: EC50) is 1 to 500 nM.

For orientation: IC50 means the concentration at which inhibition is half-maximal. A lower IC50 goes with higher potency. By EC50 is commonly meant the midpoint of the concentration-response curve.
